Where two headings read alike, the source gives them in different places. Values belong to the compound of their own block, whether it stands above or below them.
Key:
[1] = system: mouse gut microbiota; design: method as in Lin et al., 2016; settings: ref Lin et al., 2016; cited from earlier work
[2] = system: human fecal suspensions with gut microbiota; settings: for Substrate recovered at the initial time point from the fecal suspensions: 0 hr, initial substrate dose 1 µmol; for Substrate amount in human fecal suspension: initial dose 1 µmol, 37°C anaerobic
Protocol: The column was a Zorbax SB‐C18 column (250 mm × 4.6 mm, 5.0 µm). […] Quantification of phenolic acids was carried out by an internal standard method using calibration curves. […] For each analytical run, a standard curve was prepared in the appropriate matrix (methanol, blank serum, urine, or feces) and used to determine the content of phenolic acids in chicory or biological samples. The detection limit for phenolic acids (10‐fold baseline noise) under the conditions used in this study was 1 ng/ml in serum and 5 ng/ml in urine and feces, and values below this concentration were reported as zero. […] Mycophenolic acid was selected as the internal standard.
Fresh feces (2 g) collected from human adults were mixed with 10 ml of brain–heart infusion medium, and the resulting solution was filtered with autoclaved gauze to remove the dregs before use. […] The mixture was fermented at 37°C under anaerobic conditions using the anaerobic chamber. […] All incubations were performed in triplicate. At the same time, the fecal suspension was incubated without phenolic acids as a negative control.

[3] = system: human gut microbiota; design: method as in Gonthier et al., 2006; settings: ref Gonthier et al., 2006; cited from earlier work
[4] = Single-dose pharmacokinetic trial, serum protocatechuic acid and conjugates after 150 g of chicory; assay type: in vivo, human
Protocol: (§1) A single-dose pharmacokinetic trial was conducted to evaluate the acute (24 hr) bioavailability of protocatechuic acid from chicory juice. Qualified participants were asked to consume foods low in phytochemicals for three days prior to the chicory juice intervention. Participants were also asked to consume a diet without vegetables, fruits, and plant-based beverages for the day prior to the intervention and the intervention day. The purpose of these dietary restrictions was to reduce any residual dietary phenolic compounds from the body (these compounds are typically cleared from blood, urine, and feces within 48 hr of consumption) and to ensure phenolic compounds present in the blood, urine, and feces samples collected during the intervention were derived from the chicory juice alone. Prior to administering the chicory juice, overnight fasting blood, urine, and feces (first-morning void) were collected at time 0 hr as the baseline. A single dose of chicory juice (150 g of chicory) was then orally ingested by each of the participants under close observation by the researcher in 5 min. No other foods or beverages were provided at this time. The chicory juice was prepared together approximately 10 min prior to this pharmacokinetic trial. One portion of chicory juice was kept to quantify the content of protocatechuic acid. […] Fecal samples from 0-24 hr after chicory juice drinking were collected. […] Mycophenolic acid was selected as the internal standard. The pharmacokinetic parameters of protocatechuic acid in the free, glucuronide, and sulfate conjugates were calculated using DAS 2.1 (BioGuider Co.), with a noncompartmental model: maximum serum concentrations (Cmax); time to achieve maximum serum concentrations (Tmax); the area under the concentration-time curve to 24 hr (AUC0-24); and terminal elimination half-life (T1/2z). The apparent bioavailability of protocatechuic acid together was quantified using AUC0-24 divided by its ingested amount. Urinary and fecal recoveries were calculated using the total content of urinary and fecal protocatechuic acid divided by its ingested amount.

[5] = design: method as in Chen et al., (2012); settings: CF‐1 mice, oral 50 mg/kg; ref Chen et al., (2012); cited from earlier work
[6] = Urinary excretion/recovery of protocatechuic acid and conjugates after 150 g of chicory; assay type: in vivo, human
Protocol: as §1

[7] = Fecal excretion/recovery of protocatechuic acid and conjugates after 150 g of chicory; assay type: in vivo, human
Protocol: as §1

[8] = design: method as in Wang, Zou, et al., 2011; settings: ApoE^‐/‐ mice, single oral gavage 25 mg/kg; ref Wang, Zou, et al., 2011; cited from earlier work

SMILES: O=c1c(O)c(-c2ccc(O)c(O)c2)oc2cc(O)cc(O)c12 [quercetin]
Catabolism into protocatechuic acid by mouse gut microbiota [1]: intensively catabolized into protocatechuic acid

SMILES: O=c1cc(-c2ccc(O)cc2)oc2cc(O)cc(O)c12 [apigenin]
Catabolism into protocatechuic acid by mouse gut microbiota [1]: intensively catabolized into protocatechuic acid

SMILES: O=C(O)c1cc(O)c(O)c(O)c1 [Gallic acid]
Substrate recovered at the initial time point from the fecal suspensions [2]: 95.8 ± 3.3% | Substrate amount in human fecal suspension ([2]; incubation time 0 h): 0.96 ± 0.03 µmol | Substrate amount in human fecal suspension ([2]; incubation time 6 h): 0.75 ± 0.14 µmol | Substrate amount in human fecal suspension ([2]; incubation time 12 h): 0.60 ± 0.18 µmol | Substrate amount in human fecal suspension ([2]; incubation time 24 h): 0.27 ± 0.23 µmol

SMILES: O=C(O)/C=C/c1ccc(O)c(O)c1 [Caffeic acid]
Substrate recovered at the initial time point from the fecal suspensions [2]: 86.0 ± 3.0% | Substrate amount in human fecal suspension ([2]; incubation time 0 h): 0.86 ± 0.03 µmol | Substrate amount in human fecal suspension ([2]; incubation time 6 h): 0.16 ± 0.11 µmol

Substrate recovered at the initial time point from the fecal suspensions [2]: 91.5% ± 4.7% | Substrate amount in human fecal suspension ([2]; incubation time 0 h): 0.92 ± 0.05 µmol
SMILES: O=C(/C=C/c1ccc(O)c(O)c1)O[C@@H](C(=O)O)[C@@H](O)C(=O)O [Caftaric acid]
Generation of protocatechuic acid by human gut microbiota metabolism [3]: cannot generate protocatechuic acid

Substrate recovered at the initial time point from the fecal suspensions [2]: 79.3 ± 5.7% | Substrate amount in human fecal suspension ([2]; incubation time 0 h): 0.79 ± 0.06 µmol
SMILES: O=C(/C=C/c1ccc(O)c(O)c1)O[C@@H]1C[C@@](O)(C(=O)O)C[C@@H](O)[C@@H]1O [5‐caffeoylquinic acid]

SMILES: O=C(O)c1ccc(O)c(O)c1 [PCA‐F, 3,4‐dihydroxybenzoic acid]
T1/2z, terminal elimination half‐life ([4]; 16 healthy adults, 150 g of chicory oral, serum): 1.72 ± 0.35 h | Recovery in blood circulation ([4]; 16 healthy adults, 150 g of chicory oral, AUC0‐24 divided by ingested amount): 15.60% ± 4.21% | half-life ([4]; both sexes, human, serum, 16 healthy adults, 150 g of chicory oral, read-out: T1/2z in serum (converted)): 1.72 ± 0.35 h | AUC(0-t) ([4]; both sexes, human, 16 healthy adults, 150 g of chicory oral, serum, read-out: AUC0−24, area under the concentration–time curve to 24 hr): 16.9 ± 3 µM·h | Cmax ([4]; both sexes, human, 16 healthy adults, 150 g of chicory oral, serum, read-out: Maximum (peak) serum concentration, Cmax): 3.27 µM | Tmax ([4]; both sexes, human, 16 healthy adults, 150 g of chicory oral, serum, read-out: Time of peak serum concentration): 1 h | Ingested protocatechuic acid recovered in the blood circulation, urine, and feces together ([4]; both, human, in vivo, po): 48.74% | Recovery in blood circulation ([4]; both, human, in vivo, po): about 23.79 % of the ingested dose | AUC(0-t) ([4]; female, human, oral, women, n = 8, 150 g of chicory, serum, read-out: AUC0−24): 17.2 ± 1.81 µM·h | Cmax ([4]; female, human, oral, women, n = 8, 150 g of chicory, serum, read-out: Cmax): 3.45 µM | half-life ([4]; female, human, oral, women, n = 8, 150 g of chicory, serum, read-out: T1/2z (converted)): 1.81 ± 0.48 h | Tmax ([4]; female, human, oral, women, n = 8, 150 g of chicory, serum, read-out: Tmax): 1 h | AUC(0-t) ([4]; male, human, oral, men, n = 8, 150 g of chicory, serum, read-out: AUC0−24): 16.6 ± 1.63 µM·h | Cmax ([4]; male, human, oral, men, n = 8, 150 g of chicory, serum, read-out: Cmax): 3.1 µM | half-life ([4]; male, human, oral, men, n = 8, 150 g of chicory, serum, read-out: T1/2z (converted)): 1.63 ± 0.04 h | Tmax ([4]; male, human, oral, men, n = 8, 150 g of chicory, serum, read-out: Tmax): 1 h | Recovery in blood circulation ([4]; men, n = 8, 150 g of chicory): 17.18 ± 4.05 % of the ingested dose | Recovery in blood circulation ([4]; women, n = 8, 150 g of chicory): 14.01 ± 3.74 % of the ingested dose | Formation of protocatechuic acid from gallic, caffeic, 5‐caffeoylquinic, caftaric or chicoric acid in human fecal suspensions ([2]; 1 µmol substrate, up to 24 hr, listed as protocatechuic acid): could not be detected | Peak plasma level [5]: 73.6 µM | Recovery in urine ([6]; 16 healthy adults, 150 g of chicory oral, 0-24 hr urine): 12.17 % of the ingested dose | Time at which urinary excretion reached the plateau ([6]; 16 healthy adults, after chicory juice consumption): 6 h | dose excreted ([6]; human, 150 g of chicory (as juice), 16 healthy adults, 150 g of chicory oral, 0-24 hr urine): 5.02% | Recovery in urine ([6]; men, n = 8, 150 g of chicory): 5.66 ± 3.87 % of the ingested dose | Recovery in urine ([6]; women, n = 8, 150 g of chicory): 4.38 ± 2.28 % of the ingested dose | Recovery in feces ([7]; 16 healthy adults, 150 g of chicory oral, 0-24 hr feces): 12.79 % of the ingested dose | Mean content in feces ([7]; 16 healthy adults, feces 0-24 hr after 150 g of chicory): 8.00 ± 3.17 µmol | dose excreted ([7]; human, 150 g of chicory (as juice), 16 healthy adults, 150 g of chicory oral, 0-24 hr feces): 3.25% | Recovery in feces ([7]; men, n = 8, 150 g of chicory): 2.52 ± 0.87 % of the ingested dose | Recovery in feces ([7]; women, n = 8, 150 g of chicory): 3.97 ± 1.38 % of the ingested dose | Maximal level in plasma [8]: approximately 4.3 µM

Reference: PMC6766590, “Protocatechuic acid from chicory is bioavailable and undergoes partial glucuronidation and sulfation in healthy humans” (Food Science & Nutrition, 2019)
